# How the values were obtained:
# [1] = test system: patients with schizophrenia; test: Change in QTcF from baseline to Day 14 by SNP genotype, phase 3 clinical trial of iloperidone (WGAS); type: in vivo, human; settings: iloperidone 12 mg bid
# Method: To identify new genetic markers of drug-induced QT prolongation, a whole genome association study (WGAS) was conducted as part of a phase 3 clinical trial of iloperidone. The clinical trial was a randomized, double-blind, placebo-, and ziprasidone-controlled multicenter study evaluating the efficacy, safety, and tolerability of a 24 mg/day dose of iloperidone administered twice a day (bid) for 28 days to patients with schizophrenia in acute exacerbation.
# Therefore, the change in QT interval was calculated between baseline and Day 14. The Fridericia correction (QTcF) was applied, and a generalized linear model (GLM) statistical analysis using baseline as a covariate was performed. […] Analysis was focused on those SNPs located within or close to genes (<10 kb away) in which the minor genotype group included at least 10% of the patients. Six SNPs of interest were identified in the CERKL, SLCO3A1, BRUNOL4, NRG3, NUBPL, and PALLD genes (Table 1). The possibility that changes in the QT interval reflect drug concentration differences could not be excluded because drug exposure at the time of electrocardiography (ECG) was not known. However, the six SNPs identified here are within genes not expected to play roles in drug absorption, metabolism, or excretion. For these SNPs, genotype calls generated by the microarray set were confirmed by sequencing on a random subset of DNA samples of iloperidone-treated patients. The association of a particular genotype class with lower or higher increased QT was consistent between men and women and across races. Additional SNPs with statistical association at P<0.001 were observed within or near the CERKL, SLCO3A1, NRG3, NUBPL, and PALLD genes (FIGS. 1a-f).
# Patients 18 to 65 years of age with diagnoses of schizophrenia according to the Diagnostic and Statistical Manual of Mental Disorders, 4th Edition (disorganized [295.10], paranoid [295.30], or undifferentiated [295.90]) were eligible to participate in the trial. Patients were randomly assigned to iloperidone 12 mg twice a day (bid), ziprasidone 80 mg bid (active control), or placebo. Doses were titrated to their respective target doses from Days 1 to 7 and were maintained until Day 28. Participation in the pharmacogenomic analysis was optional. Blood samples were collected, and DNA was extracted (Quest Diagnostics Laboratories, Van Nuys, Calif.) from 432 of 457 patients who consented to the optional WGAS, including 218 patients administered iloperidone. Of these iloperidone-treated patients, 183 (152 men and 31 women) with QT data at Day 14 were part of the WGAS reported here. They included 16 Asian, 69 white, and 91 black or African American patients and 7 patients of other ethnic origins.
# Twelve-lead ECG was performed at baseline and on Days 7, 14, 21, and 28. Except at baseline, ECG was performed 2 hours after patients had received the morning dose of study drug. ECG was performed 3 times at baseline and on Day 14, with single measurements obtained for other visits. QTc interval was calculated based on QTcF. The effect of iloperidone on QTc interval was measured by the mean change from baseline in Qtc.
# Genetic markers associated with prolongation of QTcF were identified through GLM analysis. The dependent variable was mean change from baseline to Day 14 because the effects on QT were greatest by Day 14, when iloperidone achieves steady state concentration. Baseline QTcF was used as a covariate, and genotype was used as the classifiable variable. The GLM used type 3 sums of squares, with all pairwise differences produced among the least squares means. Because 3 genetic models (AA vs non-AA; AB vs non-AB; BB vs non-BB) were tested for each of the 334,563 SNPs, a total of 1,003,689 tests were performed. The Benjamini and Hochberg (BH) procedure was used to control for the expected proportion of FDR. FDR corrections were obtained from PROC MULTTEST (SAS Institute, Cary, N.C.), which produces BH adjustments to original analytical P values. […]
# [2] = test system: patients treated with iloperidone; test: Occurrence of torsades de pointes in patients treated with iloperidone; type: in vivo, human; settings: any patient treated with iloperidone, to date
smiles,measurement,setting,value
"COc1cc(C(C)=O)ccc1OCCCN1CCC(c2noc3cc(F)ccc23)CC1 [Iloperidone, 1-[4-[3-[4-(6-fluoro-1,2-benzisoxazol-3-yl)-1-piperidinyl]propoxy]-3-methoxyphenyl]ethanone]",mean change in QT (QTcF) from baseline to Day 14,"[1]; rs993648 (CERKL) genotype CC, N=50",17.02 ms
same,mean change in QT (QTcF) from baseline to Day 14,"[1]; rs993648 (CERKL) genotype CT (heterozygous), N=80",4.50 ms
same,mean change in QT (QTcF) from baseline to Day 14,"[1]; rs993648 (CERKL) genotype CT (heterozygous), N=80, listed as iloperidone",4.5 ms
same,mean change in QT (QTcF) from baseline to Day 14,"[1]; rs993648 (CERKL) genotype Non-CT (homozygous), N=94",17.81 ms
same,mean change in QT (QTcF) from baseline to Day 14,"[1]; rs993648 (CERKL) genotype Non-CT (homozygous), N=94, listed as iloperidone",17.8 ms
same,mean change in QT (QTcF) from baseline to Day 14,"[1]; rs993648 (CERKL) genotype TT, N=44",18.72 ms
same,mean change in QT (QTcF) from baseline to Day 14,"[1]; rs3924426 (SLCO3A1) genotype CC, N=5",-7.00 ms
same,mean change in QT (QTcF) from baseline to Day 14,"[1]; rs3924426 (SLCO3A1) genotype CT, N=43",3.64 ms
same,mean change in QT (QTcF) from baseline to Day 14,"[1]; rs3924426 (SLCO3A1) genotype Non-TT, N=48",2.53 ms
same,mean change in QT (QTcF) from baseline to Day 14,"[1]; rs3924426 (SLCO3A1) genotype Non-TT, N=48, listed as iloperidone",2.5 ms
same,mean change in QT (QTcF) from baseline to Day 14,"[1]; rs3924426 (SLCO3A1) genotype TT, N=135",14.99 ms
same,mean change in QT (QTcF) from baseline to Day 14,"[1]; rs3924426 (SLCO3A1) genotype TT, N=135, listed as iloperidone",15.0 ms
same,mean change in QT (QTcF) from baseline to Day 14,"[1]; rs4799915 (BRUNOL4) genotype CC, N=48",2.88 ms
same,mean change in QT (QTcF) from baseline to Day 14,"[1]; rs4799915 (BRUNOL4) genotype CC, N=48, listed as iloperidone",2.9 ms
same,mean change in QT (QTcF) from baseline to Day 14,"[1]; rs4799915 (BRUNOL4) genotype CT, N=78",13.52 ms
same,mean change in QT (QTcF) from baseline to Day 14,"[1]; rs4799915 (BRUNOL4) genotype Non-CC, N=132",14.46 ms
same,mean change in QT (QTcF) from baseline to Day 14,"[1]; rs4799915 (BRUNOL4) genotype Non-CC, N=132, listed as iloperidone",14.5 ms
same,mean change in QT (QTcF) from baseline to Day 14,"[1]; rs4799915 (BRUNOL4) genotype TT, N=54",15.81 ms
same,mean change in QT (QTcF) from baseline to Day 14,"[1]; rs4933824 (NRG3) genotype GG, N=124",15.33 ms
same,mean change in QT (QTcF) from baseline to Day 14,"[1]; rs4933824 (NRG3) genotype GG, N=124, listed as iloperidone",15.3 ms
same,mean change in QT (QTcF) from baseline to Day 14,"[1]; rs4933824 (NRG3) genotype GT, N=47",4.62 ms
same,mean change in QT (QTcF) from baseline to Day 14,"[1]; rs4933824 (NRG3) genotype Non-GG, N=57",4.41 ms
same,mean change in QT (QTcF) from baseline to Day 14,"[1]; rs4933824 (NRG3) genotype Non-GG, N=57, listed as iloperidone",4.4 ms
same,mean change in QT (QTcF) from baseline to Day 14,"[1]; rs4933824 (NRG3) genotype TT, N=10",3.41 ms
same,mean change in QT (QTcF) from baseline to Day 14,"[1]; rs7142881 (NUBPL) genotype AA, N=28",17.65 ms
same,mean change in QT (QTcF) from baseline to Day 14,"[1]; rs7142881 (NUBPL) genotype AG, N=71",16.35 ms
same,mean change in QT (QTcF) from baseline to Day 14,"[1]; rs7142881 (NUBPL) genotype GG, N=79",5.67 ms
same,mean change in QT (QTcF) from baseline to Day 14,"[1]; rs7142881 (NUBPL) genotype GG, N=79, listed as iloperidone",5.7 ms
same,mean change in QT (QTcF) from baseline to Day 14,"[1]; rs7142881 (NUBPL) genotype Non-GG, N=99",16.71 ms
same,mean change in QT (QTcF) from baseline to Day 14,"[1]; rs7142881 (NUBPL) genotype Non-GG, N=99, listed as iloperidone",16.7 ms
same,mean change in QT (QTcF) from baseline to Day 14,"[1]; rs17054392 (PALLD) genotype CC, N=2",17.33 ms
same,mean change in QT (QTcF) from baseline to Day 14,"[1]; rs17054392 (PALLD) genotype CT (heterozygous), N=30",-0.69 ms
same,mean change in QT (QTcF) from baseline to Day 14,"[1]; rs17054392 (PALLD) genotype CT (heterozygous), N=30, listed as iloperidone",-0.7 ms
same,mean change in QT (QTcF) from baseline to Day 14,"[1]; rs17054392 (PALLD) genotype Non-CT, N=153",14.16 ms
same,mean change in QT (QTcF) from baseline to Day 14,"[1]; rs17054392 (PALLD) genotype Non-CT, N=153, listed as iloperidone",14.2 ms
same,mean change in QT (QTcF) from baseline to Day 14,"[1]; rs17054392 (PALLD) genotype TT, N=151",14.12 ms
same,torsades de pointes in treated patients,[2],no evidence to date indicates that any patient treated with iloperidone has experienced torsades de pointes

# — US8652776B2, “Prediction of QT prolongation based on SNP genotype” (Vanda Pharmaceuticals, Inc., priority 2007, dated 2014)
